Data set [1] concerns Mus musculus. The experiment in a line: Anti-inflammatory activity in LPS-induced C57BL/6 mouse model of acute lung injury assessed as reduction in lung lesions at 10 to 50 mg/kg, ip pretreated for 1 hr followed LPS challenge measured after 24 hrs by hematoxylin and eosin staining based microscopy. Type of data set: functional, organism-based.
Data set [2] relates to Mus musculus. Kind of data set: Anti-inflammatory activity in BLM-induced C57BL/6 mouse model of acute lung neutrophilic inflammation assessed as reduction in total cell number in BALF at 25 and 50 mg/kg, ip qd for 7 days post BLM challenge measured on day 7. Type of data set: functional, organism-based.
In data set [3] the test system is Mus musculus. Kind of data set: Anti-inflammatory activity in LPS-induced C57BL/6 mouse model of acute lung injury assessed as intact alveolar structure at 10 to 50 mg/kg, ip pretreated for 1 hr followed LPS challenge measured after 24 hrs by hematoxylin and eosin staining based microscopy. Type of data set: functional, organism-based.
The test system of data set [4] is Mus musculus. The experiment in a line: Protection against BLM-induced lung fibrosis in C57BL/6 mouse assessed as TGF-beta1 level at 25 and 50 mg/kg, ip qd for 7 days post BLM challenge measured on day 14 by qRT-PCR method. Type of data set: functional, organism-based. On the technique in general: Real-time PCR tracks product formation cycle by cycle.
Data set [5] has as its system Mus musculus. Kind of data set: Anti-inflammatory activity in LPS-induced C57BL/6 mouse model of acute lung injury assessed as reduction in TNFalpha mRNA level pretreated intraperitoneally for 1 hr followed LPS challenge after 24 hrs by qRT-PCR method. It is filed as functional.
The test system of data set [6] is Mus musculus. Kind of data set: Anti-inflammatory activity in BLM-induced C57BL/6 mouse model of acute lung neutrophilic inflammation assessed as reduction neutrophil count at 25 mg/kg, ip qd for 7 days post BLM challenge measured on day 7. It is filed as functional, organism-based.
Data set [7] has as its system Mus musculus. The experiment in a line: Anti-inflammatory activity in BLM-induced C57BL/6 mouse model of acute lung neutrophilic inflammation assessed as reduction in number of lymphocytes in BALF at 25 and 50 mg/kg, ip qd for 7 days post BLM challenge measured on day 7. It is filed as functional, organism-based.
In data set [8] the test system is Mus musculus. The experiment in a line: Anti-inflammatory activity in LPS-induced C57BL/6 mouse model of acute lung injury assessed as reduction in neutrophil infiltration by measuring MPO activity at 10 to 50 mg/kg, ip pretreated for 1 hr followed LPS challenge measured after 24 hrs. Type of data set: functional, organism-based.
The test system of data set [9] is Mus musculus. Kind of data set: Anti-inflammatory activity in LPS-induced C57BL/6 mouse model of acute lung injury assessed as reduction in TNFalpha level pretreated intraperitoneally for 1 hr followed LPS challenge after 24 hrs by ELISA. It is filed as functional. A general note: An ELISA detects its analyte on a solid surface through an enzyme-linked reagent.

The subject of data set [10] is Mus musculus. The experiment in a line: Protection against BLM-induced lung fibrosis in C57BL/6 mouse assessed as TGF-beta1 level at 50 mg/kg, ip qd for 7 days post BLM challenge measured on day 7 by ELISA (reference value: 75.39 pg/ml). Type of data set: functional.
The subject of a further data set is Plasma. The experiment in a line: Plasma concentration in human. Type of data set: ADME, cell-free.
Data set [11] relates to Mus musculus. Kind of data set: Anti-inflammatory activity in LPS-induced C57BL/6 mouse model of acute lung injury assessed as reduction in IL-6 level pretreated intraperitoneally for 1 hr followed LPS challenge after 24 hrs by ELISA. It is filed as functional.
For data set [12], the system named is Mus musculus. Kind of data set: Anti-inflammatory activity in BLM-induced C57BL/6 mouse model of acute lung neutrophilic inflammation assessed as LTB4 level at 50 mg/kg, ip qd for 7 days post BLM challenge measured on day 7 (reference value: 139.23 pg/ml). It is filed as functional.
Data set [13] has as its system Mus musculus. Kind of data set: Anti-inflammatory activity in BLM-induced C57BL/6 mouse model of acute lung injury assessed as reduction in IL-1beta level in BALF at 25 and 50 mg/kg, ip qd for 7 days post BLM challenge measured on day 7 by ELISA. It is filed as functional, organism-based.
The subject of data set [14] is Mus musculus. The experiment in a line: Anti-inflammatory activity in BLM-induced C57BL/6 mouse model of acute lung injury assessed as reduction in IL-6 level in BALF at 25 and 50 mg/kg, ip qd for 7 days post BLM challenge measured on day 7 by ELISA. Type of data set: functional, organism-based.
Data set [15] deals with Mus musculus. Kind of data set: Protection against BLM-induced lung fibrosis in C57BL/6 mouse assessed as TGF-beta1 level at 50 mg/kg, ip qd for 7 days post BLM challenge measured on day 14 by ELISA (reference value: 99.30 pg/ml). It is filed as functional.
For data set [16], the system named is Mus musculus. The experiment in a line: Anti-inflammatory activity in LPS-induced C57BL/6 mouse model of acute lung injury assessed as reduction in alveolar vascular permeability at 10 to 50 mg/kg, ip pretreated for 1 hr followed LPS challenge measured after 24 hrs by Evans blue dye based microscopy. Type of data set: functional, organism-based.
The subject of data set [17] is Mus musculus. Kind of data set: Anti-inflammatory activity in LPS-induced C57BL/6 mouse model of acute lung injury assessed as reduction in pathological changes at 10 to 50 mg/kg, ip pretreated for 1 hr followed LPS challenge measured after 24 hrs by hematoxylin and eosin staining based microscopy. It is filed as functional, organism-based.
Data set [18] has as its system Mus musculus. Kind of data set: Anti-inflammatory activity in BLM-induced C57BL/6 mouse model of acute lung neutrophilic inflammation assessed as MPO activity at 25 mg/kg, ip qd for 7 days post BLM challenge measured on day 7 (reference value: 0.98 U/g). Type of data set: functional.
Data set [19] relates to Mus musculus. The experiment in a line: Protection against BLM-induced lung fibrosis in C57BL/6 mouse assessed as TGF-beta1 level at 10 and 25 mg/kg, ip qd for 7 days post BLM challenge measured on day 7 by qRT-PCR method. It is filed as functional, organism-based.
Data set [20] relates to Mus musculus. Kind of data set: Anti-inflammatory activity in BLM-induced C57BL/6 mouse model of acute lung injury assessed as reduction in IL-1beta level in BALF at 10 and 25 mg/kg, ip qd for 7 days post BLM challenge measured on day 7 by ELISA. Type of data set: functional, organism-based.
Data set [21] relates to Mus musculus. The experiment in a line: Anti-inflammatory activity in BLM-induced C57BL/6 mouse model of acute lung neutrophilic inflammation assessed as LTB4 level at 25 mg/kg, ip qd for 7 days post BLM challenge measured on day 7 (reference value: 139.23 pg/ml). Type of data set: functional.
Data set [22] concerns Mus musculus. Kind of data set: Anti-inflammatory activity in BLM-induced C57BL/6 mouse model of acute lung neutrophilic inflammation assessed as reduction in total cell number in BALF at 10 and 25 mg/kg, ip qd for 7 days post BLM challenge measured on day 7. Type of data set: functional, organism-based.
The test system of data set [23] is Mus musculus. The experiment in a line: Anti-inflammatory activity in BLM-induced C57BL/6 mouse model of acute lung neutrophilic inflammation assessed as protein concentration in BALF at 25 mg/kg, ip qd for 7 days post BLM challenge measured on day 7 (reference value: 2.39 mg/ml). It is filed as functional.
For data set [24], the system named is Mus musculus. The experiment in a line: Anti-inflammatory activity in BLM-induced C57BL/6 mouse model of acute lung neutrophilic inflammation assessed as reduction neutrophil count at 50 mg/kg, ip qd for 7 days post BLM challenge measured on day 7. It is filed as functional, organism-based.
Data set [25] deals with Mus musculus. Kind of data set: Protection against BLM-induced lung fibrosis in C57BL/6 mouse assessed as reduction in deposition of collagen fibers at 10 and 25 mg/kg, ip qd for 7 days post BLM challenge measured on day 7 by Massons trichrome staining based method. Type of data set: functional, organism-based.
In data set [26] the test system is Mus musculus. The experiment in a line: Protection against BLM-induced lung fibrosis in C57BL/6 mouse assessed as TGF-beta1 level at 25 mg/kg, ip qd for 7 days post BLM challenge measured on day 7 by ELISA (reference value: 75.39 pg/ml). It is filed as functional.
In data set [27] the test system is Mus musculus. The experiment in a line: Protection against BLM-induced lung fibrosis in C57BL/6 mouse assessed as TGF-beta1 level at 25 mg/kg, ip qd for 7 days post BLM challenge measured on day 14 by ELISA (reference value: 99.30 pg/ml). It is filed as functional.

Active and inactive are the calls of the source. No cut-off for these calls is given here.

In the case of `O=C(CCCCCCC(=O)Nc1ccccc1)NO` [VORINOSTAT], the result in the data set on Mus musculus [1], in the data set on Mus musculus [2], in the data set on Mus musculus [3], with Mus musculus [4], with Mus musculus [6] and in the data set on Mus musculus [7] was Active. In addition, the result in the data set with Mus musculus [8], in the data set with Mus musculus [13], in the data set with Mus musculus [14], in the data set with Mus musculus [16] and with Mus musculus [17] was Active. Also, the Activity result in the data set with Mus musculus [5] is “Dose-dependent effect”; with Mus musculus [9] it was “Dose-dependent effect”; with Mus musculus [10] it was 34.09 pg/mL; in the data set with Mus musculus [11] it was “Dose-dependent effect”; with Mus musculus [12], 43.19 pg/mL; in the data set on Mus musculus [15], 49.74 pg/mL. This compound had a concentration in the data set with Plasma of 0.01 to 6 µM.

As for `CN(C)c1ccc(C(=O)NCCCCCCC(=O)NO)cc1`, the Activity came out at 0.56 U/g with Mus musculus [18]; 37.23 pg/mL in the data set with Mus musculus [21]; 1.92 mg/mL in the data set with Mus musculus [23]; 31.74 pg/mL in the data set on Mus musculus [26]; 38.22 pg/mL in the data set on Mus musculus [27]. Moreover, the outcome in the data set on Mus musculus [19], with Mus musculus [20], with Mus musculus [22], in the data set on Mus musculus [24] and with Mus musculus [25] was Active.
